Assay results taken from patent publication US7592305B2, “Use of ghrelin for treating malnutrition in gastrectomized individuals” (Gastrotech Pharma A/S, priority 2002, dated 2009).
Ends that are not written are not given here. * marks the point of attachment. Octanoyl = CCCCCCCC(=O)*

Tested on: gastrectomised rats
Experiment: Treatment of totally gastrectomised (vagotomised) rats with ghrelin analogue MK-0677 by gavage
Assay type: in vivo, rat
Procedure: Total gastrectomy was performed and followed by end-to-end anastomosis between the esophagus and the duodenum as described in Lehto-Axtelius D., et al. Osteopenia after gastrectomy, fundectomy or antrectomy: an experimental study in the rat., Regul. Pept. 78 (1998), 41-50. The gastrectomy was accompanied by total vagotomy at the level of cardia. Sham operation was performed by opening the abdomen and moving the stomach.
In sham gastrectomised rats the ghrelin levels were 2.06±0.22 ng/ml, while they were less than the least detectable level of the assay, i e, 0.25 ng/ml after gastrectomy. From four weeks after gastrectomy the animals were administered either water or the ghrelin analogue MK-0677 by gavage once daily (4 mg/kg/day).
Food intake and body weight was measured daily and throughout the experiment. […] After two weeks of treatment, the animals were decapitated and blood and tissues collected and rapidly frozen. Gonadal, mesenteric and retroperitoneal far pads were dissected and weighed, and the sum of the weight was then calculated. Ghrelin was measured in serum using a kit purchased from Phoenix Pharmaceuticals as described (Dornonville de la Cour, supra).

[1] = 4 mg/kg/day by gavage once daily, after two weeks of treatment, vs water

| Compound | desire for food (food intake measured daily) (treated once daily by gavage) | body weight (4 mg/kg/day by gavage once daily from four weeks after gastrectomy, two weeks of treatment, vs water) | hypothalamic levels of neuropeptide Y (NPY) mRNA [1] | sum of dissected fat pad weights (gonadal, mesenteric and retroperitoneal) [1] |
| --- | --- | --- | --- | --- |
| ghrelin: acylated peptide of 28 amino acids with an octanoyl ester attached to a serine residue (GSS(Octanoyl)FLSPEHQRVQQRKESKKPPAKLQPR; listed as Homo sapiens) | increased | – | – | – |
| CC(C)(N)C(=O)N[C@H](COCc1ccccc1)C(=O)N1CCC2(CC1)CN(S(C)(=O)=O)c1ccccc12 [MK677] | – | increased | increased | enhanced |
